Test results published in the supplement of paper PMC11061612.

Columns and labels:
AZD0156 = compound: CN(C)CCCOc1ccc(-c2ccc3ncc4c(c3c2)n(C2CCOCC2)c(=O)n4C)cn1 [AZD0156]; conditions: max 3 µM
Outline: (§1)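 Cancer cell lines were seeded in 1536-well plates in 7.5 μl DMEM/F12 or RPMI with 10% FBS, held 24 hours at 37°C and 5% CO2, then dosed for 72 hours (final DMSO typically 0.2%). Viability was read by CellTiter-Glo 2.0 luminescence and scaled between blank-well and DMSO-well means. The single-agent IC50 comes from dose responses fitted to a two-parameter logistic curve with a non-linear mixed effects model.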

Crizotinib = compound: C[C@@H](Oc1cc(-c2cnn(C3CCNCC3)c2)cnc1N)c1c(Cl)ccc(F)c1Cl [Crizotinib]; conditions: max 10 µM
Outline: as §1

AZD5991 = compound: Cc1c2c(nn1C)CSCc1cc(n(C)n1)CSc1cc(c3ccccc3c1)OCCCc1c(C(=O)O)n(C)c3c-2c(Cl)ccc13 [AZD5991]; conditions: max 1 µM
Outline: as §1

Trametinib = compound: CC(=O)Nc1cccc(-n2c(=O)n(C3CC3)c(=O)c3c(Nc4ccc(I)cc4F)n(C)c(=O)c(C)c32)c1 [Trametinib]; conditions: max 1 µM
Outline: as §1

AZD6738 = compound: C[C@@H]1COCCN1C2=NC(=NC(=C2)C3(CC3)[S@](=N)(=O)C)C4=C5C=CNC5=NC=C4 [AZD6738]; conditions: max 10 µM
Outline: as §1

AZD4320 = compound: CN(CC[C@H](CSC1=CC=CC=C1)NC2=C(C=C(C=C2)S(=O)(=O)NC(=O)C3=CC=C(C=C3)N4CCC(CC4)[C@H](C5=CC=CC=C5C6=CC=C(C=C6)Cl)O)S(=O)(=O)C(F)(F)F)CCO [AZD4320]; conditions: max 1 µM
Outline: as §1

Venetoclax = compound: CC1(C)CCC(CN2CCN(c3ccc(C(=O)NS(=O)(=O)c4ccc(NCC5CCOCC5)c([N+](=O)[O-])c4)c(Oc4cnc5[nH]ccc5c4)c3)CC2)=C(c2ccc(Cl)cc2)C1 [Venetoclax]; conditions: max 1 µM
Outline: as §1

Capivasertib = compound: C1CN(CCC1(C(=O)N[C@@H](CCO)C2=CC=C(C=C2)Cl)N)C3=NC=NC4=C3C=CN4 [Capivasertib]; conditions: max 10 µM
Outline: as §1

Taselisib = compound: Cc1nc(-c2cn3c(n2)-c2ccc(-c4cnn(C(C)(C)C(N)=O)c4)cc2OCC3)n(C(C)C)n1 [Taselisib]; conditions: max 10 µM
Outline: as §1

AZD7648 = compound: Cc1cc2ncnn2cc1Nc1ncc2c(n1)n(C1CCOCC1)c(=O)n2C [AZD7648]; conditions: max 10 µM
Outline: as §1

Savolitinib = compound: C[C@@H](c1ccc2nccn2c1)n1nnc2ncc(-c3cnn(C)c3)nc21 [Savolitinib]; conditions: max 1 µM
Outline: as §1

SN-38 = compound: CCc1c2c(nc3ccc(O)cc13)-c1cc3c(c(=O)n1C2)COC(=O)[C@]3(O)CC [SN-38]; conditions: max 0.3 µM
Outline: as §1

Palbociclib = compound: CC(=O)c1c(C)c2cnc(Nc3ccc(N4CCNCC4)cn3)nc2n(C2CCCC2)c1=O [Palbociclib]; conditions: max 10 µM
Outline: as §1

Gefitinib = compound: COc1cc2ncnc(Nc3ccc(F)c(Cl)c3)c2cc1OCCCN1CCOCC1 [Gefitinib]; conditions: max 10 µM
Outline: as §1

Dasatinib = compound: CC1=C(C(=CC=C1)Cl)NC(=O)C2=CN=C(S2)NC3=CC(=NC(=N3)C)N4CCN(CC4)CCO [Dasatinib]; conditions: max 2 µM
Outline: as §1

Selumetinib = compound: Cn1cnc2c(F)c(Nc3ccc(Br)cc3Cl)c(C(=O)NOCCO)cc21 [Selumetinib]; conditions: max 10 µM
Outline: as §1

Lapatinib = compound: CS(=O)(=O)CCNCc1ccc(-c2ccc3ncnc(Nc4ccc(OCc5cccc(F)c5)c(Cl)c4)c3c2)o1 [Lapatinib]; conditions: max 10 µM
Outline: as §1

AZD2811 = compound: CCN(CCO)CCCOc1ccc2c(Nc3cc(CC(=O)Nc4cccc(F)c4)[nH]n3)ncnc2c1 [AZD2811]; conditions: max 1 µM
Outline: as §1

AZD8186 = compound: C[C@@H](Nc1cc(F)cc(F)c1)c1cc(C(=O)N(C)C)cc2c(=O)cc(N3CCOCC3)oc12 [AZD8186]; conditions: max 3 µM
Outline: as §1

Doxorubicin = compound: COc1cccc2c1C(=O)c1c(O)c3c(c(O)c1C2=O)C[C@@](O)(C(=O)CO)C[C@@H]3O[C@H]1C[C@H](N)[C@H](O)[C@H](C)O1 [Doxorubicin]; conditions: max 1 µM
Outline: as §1

AZD5153 = compound: COc1nnc2ccc(N3CCC(c4ccc(OCCN5CCN(C)C(=O)[C@H]5C)cc4)CC3)nn12 [AZD5153]; conditions: max 1 µM
Outline: as §1

AZD1390 = compound: CC(C)n1c(=O)n(C)c2cnc3cc(F)c(-c4ccc(OCCCN5CCCCC5)nc4)cc3c21 [AZD1390]; conditions: max 0.3 µM
Outline: as §1

SG3199 = compound: CC1=CN2[C@@H](C1)C=NC3=CC(=C(C=C3C2=O)OC)OCCCCCOC4=C(C=C5C(=C4)N=C[C@@H]6CC(=CN6C5=O)C)OC [SG3199]; conditions: max 0.001 µM
Outline: as §1

AZD1775 = compound: C=CCn1c(=O)c2cnc(Nc3ccc(N4CCN(C)CC4)cc3)nc2n1-c1cccc(C(C)(C)O)n1 [AZD1775]; conditions: max 3 µM
Outline: as §1

Prexasertib = compound: COc1cccc(OCCCN)c1-c1cc(Nc2cnc(C#N)cn2)n[nH]1 [Prexasertib]; conditions: max 1 µM
Outline: as §1

Alisertib = compound: COc1cc(Nc2ncc3c(n2)-c2ccc(Cl)cc2C(c2c(F)cccc2OC)=NC3)ccc1C(=O)O [Alisertib]; conditions: max 10 µM
Outline: as §1

Olaparib = compound: O=C(c1cc(Cc2n[nH]c(=O)c3ccccc23)ccc1F)N1CCN(C(=O)C2CC2)CC1 [Olaparib]; conditions: max 10 µM
Outline: as §1

Row | Cell Line | IC50, cell viability 72 h (AZD0156) [nM] | IC50, cell viability 72 h (Crizotinib) [nM] | IC50, cell viability 72 h (AZD5991) [nM] | IC50, cell viability 72 h (Trametinib) [nM] | IC50, cell viability 72 h (AZD6738) [nM] | IC50, cell viability 72 h (AZD4320) [nM] | IC50, cell viability 72 h (Venetoclax) [nM] | IC50, cell viability 72 h (Capivasertib) [nM] | IC50, cell viability 72 h (Taselisib) [nM] | IC50, cell viability 72 h (AZD7648) [nM] | IC50, cell viability 72 h (Savolitinib) [nM] | IC50, cell viability 72 h (SN-38) [nM] | IC50, cell viability 72 h (Palbociclib) [nM] | IC50, cell viability 72 h (Gefitinib) [nM] | IC50, cell viability 72 h (Dasatinib) [nM] | IC50, cell viability 72 h (Selumetinib) [nM] | IC50, cell viability 72 h (Lapatinib) [nM] | IC50, cell viability 72 h (AZD2811) [nM] | IC50, cell viability 72 h (AZD8186) [nM] | IC50, cell viability 72 h (Doxorubicin) [nM] | IC50, cell viability 72 h (AZD5153) [nM] | IC50, cell viability 72 h (AZD1390) [nM] | IC50, cell viability 72 h (SG3199) [nM] | IC50, cell viability 72 h (AZD1775) [nM] | IC50, cell viability 72 h (Prexasertib) [nM] | IC50, cell viability 72 h (Alisertib) [nM] | IC50, cell viability 72 h (Olaparib) [nM]
1 | MDST8 (Colorectal Carcinoma) | > 3000 | > 10000 | > 1000 | 19.9 | 7450 | 890 | > 1000 | > 10000 | > 10000 | > 10000 | > 1000 | 15.6 | > 10000 | > 10000 | > 2000 | 1150 | > 10000 | > 1000 | > 3000 | 224 | > 1000 | > 300 | > 1 | 875 | 25 | > 10000 | > 10000
2 | NCI-H1650 (Lung Adenocarcinoma) | > 3000 | > 10000 | > 1000 | > 1000 | > 10000 | > 1000 | > 1000 | > 10000 | > 10000 | > 10000 | > 1000 | > 300 | > 10000 | > 10000 | > 2000 | > 10000 | > 10000 | > 1000 | > 3000 | > 1000 | > 1000 | > 300 | > 1 | > 3000 | 472 | > 10000 | > 10000
3 | NCI-H1693 (Lung Adenocarcinoma) | > 3000 | > 10000 | > 1000 | > 1000 | > 10000 | > 1000 | > 1000 | > 10000 | > 10000 | > 10000 | > 1000 | 87.2 | > 10000 | > 10000 | > 2000 | > 10000 | > 10000 | > 1000 | > 3000 | > 1000 | > 1000 | > 300 | > 1 | > 3000 | > 1000 | > 10000 | > 10000
4 | NCI-H2141 (Small Cell Lung Carcinoma) | > 3000 | > 10000 | > 1000 | > 1000 | > 10000 | 307 | > 1000 | > 10000 | > 10000 | > 10000 | > 1000 | > 300 | > 10000 | > 10000 | > 2000 | > 10000 | > 10000 | > 1000 | > 3000 | > 1000 | > 1000 | > 300 | > 1 | 2200 | 458 | > 10000 | > 10000
